Data: ChEMBL document CHEMBL3621178, “Antidiabetic effect of novel benzenesulfonylureas as PPAR-γ agonists and their anticancer effect” (Bioorg Med Chem Lett, 2015)

Legend:
Assay type in all cases: functional
Malme-3M = assay: Growth inhibition of human MALME-3M cells assessed as cell viability at 10 uM incubated for 48 hrs by sulforhodamine B assay; details: read-out: Activity
HCT-116 = assay: Growth inhibition of human HCT116 cells assessed as cell viability at 10 uM incubated for 48 hrs by sulforhodamine B assay; details: HCT-116, 48 h, read-out: Activity
SF-268 = assay: Growth inhibition of human SF268 cells assessed as cell viability at 10 uM incubated for 48 hrs by sulforhodamine B assay; details: SF-268, 48 h, read-out: Activity
786-0 = assay: Growth inhibition of human 786-0 cells assessed as cell viability at 10 uM incubated for 48 hrs by sulforhodamine B assay; details: 786-0, 48 h, read-out: Activity
MDA-MB-231 = assay: Growth inhibition of human MDA-MB-231 cells assessed as cell viability at 10 uM incubated for 48 hrs by sulforhodamine B assay; details: MDA-MB-231, 48 h, read-out: Activity
SK-MEL-5 = assay: Growth inhibition of human SK-MEL-5 cells assessed as cell viability at 10 uM incubated for 48 hrs by sulforhodamine B assay; details: SK-MEL-5, 48 h, read-out: Activity
OVCAR-3 = assay: Growth inhibition of human OVCAR3 cells assessed as cell viability at 10 uM incubated for 48 hrs by sulforhodamine B assay; details: OVCAR-3, 48 h, read-out: Activity
M14 = assay: Growth inhibition of human M14 cells assessed as cell viability at 10 uM incubated for 48 hrs by sulforhodamine B assay; details: M14, 48 h, read-out: Activity
NCI-H226 = assay: Growth inhibition of human NCI-H226 cells assessed as cell viability at 10 uM incubated for 48 hrs by sulforhodamine B assay; details: NCI-H226, 48 h, read-out: Activity
SR = assay: Growth inhibition of human SR cells assessed as cell viability at 10 uM incubated for 48 hrs by sulforhodamine B assay; details: read-out: Activity
SN12C = assay: Growth inhibition of human SN12C cells assessed as cell viability at 10 uM incubated for 48 hrs by sulforhodamine B assay; details: read-out: Activity
[1] = Growth inhibition of human HOP92 cells assessed as cell viability at 10 uM incubated for 48 hrs by sulforhodamine B assay; details: HOP-92, 48 h, read-out: Activity
OVCAR-4 = assay: Growth inhibition of human OVCAR4 cells assessed as cell viability at 10 uM incubated for 48 hrs by sulforhodamine B assay; details: OVCAR-4, 48 h, read-out: Activity
DU-145 = assay: Growth inhibition of human DU145 cells assessed as cell viability at 10 uM incubated for 48 hrs by sulforhodamine B assay; details: DU-145, 48 h, read-out: Activity
NCI-H460 = assay: Growth inhibition of human NCI-H460 cells assessed as cell viability at 10 uM incubated for 48 hrs by sulforhodamine B assay; details: NCI-H460, 48 h, read-out: Activity
UO-31 = assay: Growth inhibition of human UO31 cells assessed as cell viability at 10 uM incubated for 48 hrs by sulforhodamine B assay; details: UO-31, 48 h, read-out: Activity
MDA-MB-435 = assay: Growth inhibition of human MDA-MB-435 cells assessed as cell viability at 10 uM incubated for 48 hrs by sulforhodamine B assay; details: MDA-MB-435, 48 h, read-out: Activity
CAKI-1 = assay: Growth inhibition of human CAKI-1 cells assessed as cell viability at 10 uM incubated for 48 hrs by sulforhodamine B assay; details: CAKI-1, 48 h, read-out: Activity
[2] = Growth inhibition of human RXF393 cells assessed as cell viability at 10 uM incubated for 48 hrs by sulforhodamine B assay; details: RXF 393, 48 h, read-out: Activity
SNB-19 = assay: Growth inhibition of human SNB19 cells assessed as cell viability at 10 uM incubated for 48 hrs by sulforhodamine B assay; details: SNB-19, 48 h, read-out: Activity
[3] = Growth inhibition of human Hs 578T cells assessed as cell viability at 10 uM incubated for 48 hrs by sulforhodamine B assay; details: read-out: Activity
A498 = assay: Growth inhibition of human A498 cells assessed as cell viability at 10 uM incubated for 48 hrs by sulforhodamine B assay; details: A498, 48 h, read-out: Activity
SNB-75 = assay: Growth inhibition of human SNB75 cells assessed as cell viability at 10 uM incubated for 48 hrs by sulforhodamine B assay; details: SNB-75, 48 h, read-out: Activity
UACC-257 = assay: Growth inhibition of human UACC257 cells assessed as cell viability at 10 uM incubated for 48 hrs by sulforhodamine B assay; details: UACC-257, 48 h, read-out: Activity
U-251 = assay: Growth inhibition of human U251 cells assessed as cell viability at 10 uM incubated for 48 hrs by sulforhodamine B assay; details: U-251, 48 h, read-out: Activity
MDA-MB-468 = assay: Growth inhibition of human MDA-MB-468 cells assessed as cell viability at 10 uM incubated for 48 hrs by sulforhodamine B assay; details: MDA-MB-468, 48 h, read-out: Activity
OVCAR-8 = assay: Growth inhibition of human OVCAR8 cells assessed as cell viability at 10 uM incubated for 48 hrs by sulforhodamine B assay; details: OVCAR-8, 48 h, read-out: Activity
HCT-15 = assay: Growth inhibition of human HCT15 cells assessed as cell viability at 10 uM incubated for 48 hrs by sulforhodamine B assay; details: HCT-15, 48 h, read-out: Activity
[4] = Growth inhibition of human RPMI8226 cells assessed as cell viability at 10 uM incubated for 48 hrs by sulforhodamine B assay; details: RPMI-8226, 48 h, read-out: Activity
OVCAR-5 = assay: Growth inhibition of human OVCAR5 cells assessed as cell viability at 10 uM incubated for 48 hrs by sulforhodamine B assay; details: OVCAR-5, 48 h, read-out: Activity
HOP-62 = assay: Growth inhibition of human HOP62 cells assessed as cell viability at 10 uM incubated for 48 hrs by sulforhodamine B assay; details: HOP-62, 48 h, read-out: Activity
[5] = Growth inhibition of human NCI60 cells assessed as cell viability at 10 uM incubated for 48 hrs by sulforhodamine B assay; details: NCI60, 48 h, read-out: Activity
[6] = Growth inhibition of human NCI-ADR-RES cells assessed as cell viability at 10 uM incubated for 48 hrs by sulforhodamine B assay; details: read-out: Activity
[7] = Growth inhibition of human SF539 cells assessed as cell viability at 10 uM incubated for 48 hrs by sulforhodamine B assay; details: SF-539, 48 h, read-out: Activity
[8] = Growth inhibition of human MOLT4 cells assessed as cell viability at 10 uM incubated for 48 hrs by sulforhodamine B assay; details: MOLT-4, 48 h, read-out: Activity

Structure (SMILES) | viability at 10 µM (Malme-3M) [%] | viability at 10 µM (HCT-116) [%] | viability at 10 µM (SF-268) [%] | viability at 10 µM (786-0) [%] | viability at 10 µM (MDA-MB-231) [%] | viability at 10 µM (SK-MEL-5) [%] | viability at 10 µM (OVCAR-3) [%] | viability at 10 µM (M14) [%] | viability at 10 µM (NCI-H226) [%] | viability at 10 µM (SR) [%] | viability at 10 µM (SN12C) [%] | viability at 10 µM [1] [%] | viability at 10 µM (OVCAR-4) [%] | viability at 10 µM (DU-145) [%] | viability at 10 µM (NCI-H460) [%] | viability at 10 µM (UO-31) [%] | viability at 10 µM (MDA-MB-435) [%] | viability at 10 µM (CAKI-1) [%] | viability at 10 µM [2] [%] | viability at 10 µM (SNB-19) [%] | other results
O=C(NCc1ccccc1)NS(=O)(=O)c1ccc(N2N=C(c3cc4ccccc4oc3=O)CC2c2cccs2)cc1 (stereo not given) | 90.7 | 106 | 103 | 95.3 | 103 | 101 | 106 | 98.8 | 98.4 | 98.8 | 98.4 | 94.2 | 98.2 | 110 | 107 | 95.7 | 103 | 94.2 | 123 | 108 | viability at 10 µM [3]: 99.6%; viability at 10 µM (A498): 107%; viability at 10 µM (SNB-75): 82.3%; viability at 10 µM (UACC-257): 104%; viability at 10 µM (U-251): 102%; viability at 10 µM (MDA-MB-468): 110%; viability at 10 µM (OVCAR-8): 103%; viability at 10 µM (HCT-15): 106%; viability at 10 µM [4]: 105%; viability at 10 µM (OVCAR-5): 111%; viability at 10 µM (HOP-62): 93.6%; viability at 10 µM [5]: 103%; viability at 10 µM [6]: 103%; viability at 10 µM [7]: 103%; viability at 10 µM [8]: 106%
CN(C)c1ccc(C2CC(c3cc4ccccc4oc3=O)=NN2c2ccc(S(=O)(=O)NC(=O)NCc3ccccc3)cc2)cc1 (stereo not given) | 89.9 | 48.5 | 87.9 | 68.4 | 78.1 | 62.7 | 82.2 | 55 | 74 | 19.7 | 77.8 | 49.1 | 52.8 | 84.9 | 65.3 | 44.9 | 65.5 | 49.4 | 85.4 | 82 | viability at 10 µM [3]: 67.1%; viability at 10 µM (A498): 51.2%; viability at 10 µM (SNB-75): 27.1%; viability at 10 µM (UACC-257): 64.9%; viability at 10 µM (U-251): 67.8%; viability at 10 µM (MDA-MB-468): 68.2%; viability at 10 µM (OVCAR-8): 71.7%; viability at 10 µM (HCT-15): 32.8%; viability at 10 µM [4]: 66.1%; viability at 10 µM (OVCAR-5): 74.6%; viability at 10 µM (HOP-62): 57.8%; viability at 10 µM [5]: 65.8%; viability at 10 µM [6]: 83.1%; viability at 10 µM [7]: 70.8%; viability at 10 µM [8]: 66.6%
